One assay has as its target T1, Lysozyme (Homo sapiens, UniProt P61626).
T1 sequence (P61626 19-148): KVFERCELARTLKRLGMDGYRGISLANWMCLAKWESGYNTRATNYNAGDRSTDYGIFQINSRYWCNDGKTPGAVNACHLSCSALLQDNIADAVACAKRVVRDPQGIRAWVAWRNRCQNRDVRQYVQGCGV
The experiment in a line: Lysozyme inhibition saliva screening (fluorescein-labeled Micrococcus lysodeikticus). Format: biochemical.

Another assay deals with T2, α-amylase (Homo sapiens, UniProt P0DUB6).
T2 sequence (P0DUB6 16-511): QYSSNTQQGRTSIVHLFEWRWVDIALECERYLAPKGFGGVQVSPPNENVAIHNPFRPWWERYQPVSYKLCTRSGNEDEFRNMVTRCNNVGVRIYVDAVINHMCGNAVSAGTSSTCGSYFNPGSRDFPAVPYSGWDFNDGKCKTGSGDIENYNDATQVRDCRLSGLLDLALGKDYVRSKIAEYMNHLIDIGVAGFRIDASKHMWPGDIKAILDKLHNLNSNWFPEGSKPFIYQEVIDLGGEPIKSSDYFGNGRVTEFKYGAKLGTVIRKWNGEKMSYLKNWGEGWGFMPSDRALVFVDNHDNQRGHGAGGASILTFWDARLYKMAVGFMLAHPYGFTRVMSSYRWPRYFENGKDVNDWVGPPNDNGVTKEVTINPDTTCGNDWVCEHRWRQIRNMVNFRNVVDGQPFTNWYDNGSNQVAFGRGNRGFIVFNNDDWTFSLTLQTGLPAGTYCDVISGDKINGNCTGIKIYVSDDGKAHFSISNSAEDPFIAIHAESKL
Nature of the assay: α-Amylase inhibition saliva screening (2-chloro-p-nitrophenol-maltotriose substrate, absorbance 405 nm). Format: biochemical. The note with it: 37° C.; for α-amylase assay reading (absorbance at 405 nm), single replicate: test compound prepared at 5,000 ppm.

“And” between values parts separate entries of the source, which are not always exact repeats. Identical values can stand only once.

Text for Lysozyme: The assay measures lysozyme activity on Micrococcus lysodeikticus cell walls, which are labeled to such a degree that the fluorescence is quenched. Lysozyme activity can relieve this quenching; yielding increased fluorescence that is proportional to lysozyme activity.
Text for α-amylase: Enzymatic activity of α-amylase on the substrate yields 2-chloro-p-nitrophenol, which can be measured spectrophotometrically at 405 nm. The amount of α-amylase activity present in the experimental sample is directly proportional to the increase in absorbance at 405 nm.

On to `CC(=O)O` [CDI-047, Acetic acid], for which the “inhibition of Lysozyme” value at Lysozyme (100% saliva samples (data not shown)) was “inhibit Lysozyme”. Besides, at Lysozyme (dilute (3.5%) saliva, FIG. 12), the “Lysozyme Inhibitor Activity” value is recorded as “Lysozyme Inhibitor Activity”.

For the compound “Aluminum potassium sulfate dodecahydrate [CDI-42]”, at α-amylase (0 min, 5,000 ppm), the “α-amylase assay reading, Ave” value is 0.92. In addition, the “α-amylase assay reading (absorbance at 405 nm), single replicate” value on α-amylase (0 min) is 0.80 and 0.90 and 0.84; on α-amylase (5 min) it was 1.80.

Consider Aluminum sulfate hydrate [CDI-34], for which the “α-amylase assay reading, Ave” value at α-amylase (0 min, 5,000 ppm) is 0.40; on α-amylase (5 min, 5,000 ppm), 0.50; at α-amylase (15 min, 5,000 ppm) it was 0.56. The “α-amylase assay reading (absorbance at 405 nm), single replicate” value at α-amylase (0 min, sulfate hydrate) was 0.40 (2×) and 0.36 and 0.45; on α-amylase (5 min, sulfate hydrate), 0.49 and 0.50 (2×) and 0.52; at α-amylase (15 min, sulfate hydrate) it was 0.53 and 0.61 and 0.54 and 0.56.

The values are drawn from patent US20110195404A1, “SYSTEMS AND METHODS FOR DETERMINING CALCIUM LEVELS” (priority 2010, published 2011).
